# Source: PubChem BioAssay (NCI)
#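 96-well plates; 48 h exposure; 5 concentrations. Endpoints by linear interpolation between flanking doses. Not reached: highest tested concentration assigned. The concentration for 50% growth inhibition is given as GI50. TGI is the concentration that stops growth completely.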
# Assays:
# Assay in all cases: DTP human tumour cell line panel, 48 h
# [1] = tested on: TK-10 renal
# [2] = tested on: A549 NSCLC
# [3] = tested on: HT29 colon
# [4] = tested on: COLO 205 colon
# [5] = tested on: MCF7 breast
# [6] = tested on: NCI-H226 lung
# [7] = tested on: BT-549 breast
# [8] = tested on: NCI/ADR-RES ovarian
# [9] = tested on: T-47D breast
# [10] = tested on: PC-3 prostate
# [11] = tested on: SK-MEL-5 melanoma
# [12] = tested on: SF-295 CNS
# [13] = tested on: ACHN renal
# [14] = tested on: M14 melanoma
# [15] = tested on: OVCAR-8 ovarian
# [16] = tested on: A498 renal
# [17] = tested on: MDA-MB-435
# [18] = tested on: 786-0 renal
# [19] = tested on: CAKI-1 renal
# [20] = tested on: K-562 leukemia
# [21] = tested on: UACC-62 melanoma
# [22] = tested on: DU-145 prostate
# [23] = tested on: HL-60(TB) leukemia
# [24] = tested on: OVCAR-3 ovarian
# [25] = tested on: NCI-H522 lung
# [26] = tested on: SNB-75 CNS
# [27] = tested on: MOLT-4 leukemia
# [28] = tested on: NCI-H460 lung
# [29] = tested on: KM12 colon
# [30] = tested on: OVCAR-5 ovarian
# [31] = tested on: UACC-257 melanoma
# [32] = tested on: HCT-116 colon
# [33] = tested on: IGROV1 ovarian
# [34] = tested on: HCT-15 colon
# [35] = tested on: UO-31 renal
# [36] = tested on: SK-MEL-28 melanoma
# [37] = tested on: RXF 393 renal
# [38] = tested on: SK-OV-3 ovarian
# [39] = tested on: U251 CNS
# [40] = tested on: HOP-92 NSCLC
# [41] = tested on: HCC-2998 colon
# [42] = tested on: NCI-H23 lung
# [43] = tested on: HS 578T breast
# [44] = tested on: SNB-19 CNS
# [45] = tested on: SF-539 CNS
# [46] = tested on: CCRF-CEM leukemia
# [47] = tested on: MDA-MB-231 breast
# [48] = tested on: EKVX NSCLC
# [49] = tested on: SF-268 CNS
# [50] = tested on: OVCAR-4 ovarian
# [51] = tested on: SN12C renal
# [52] = tested on: HOP-62 NSCLC
# [53] = tested on: LOX IMVI melanoma
# [54] = tested on: SW-620 colon
# [55] = tested on: MALME-3M melanoma
# [56] = tested on: RPMI-8226 leukemia
compound,measurement,setting,value
C[C@@H](Oc1cc(-n2cnc3ccc(OCC4CCN(C)CC4)cc32)sc1C(N)=O)c1ccccc1C(F)(F)F,GI50,[1],0.427 µM
same,TGI,[1],3.98 µM
same,GI50,[2],0.131 µM
same,TGI,[2],2.7 µM
same,GI50,[3],0.0721 µM
same,TGI,[3],2.63 µM
same,GI50,[4],0.0752 µM
same,TGI,[4],0.401 µM
same,GI50,[5],0.0651 µM
same,TGI,[5],3.18 µM
same,GI50,[6],1.55 µM
same,TGI,[6],6.16 µM
same,GI50,[7],1.37 µM
same,TGI,[7],4.75 µM
same,GI50,[8],0.477 µM
same,TGI,[8],3.87 µM
same,GI50,[9],2.69 µM
same,TGI,[9],6.03 µM
same,GI50,[10],0.114 µM
same,TGI,[10],4.08 µM
same,GI50,[11],0.217 µM
same,TGI,[11],2.95 µM
same,GI50,[12],0.138 µM
same,TGI,[12],3.39 µM
same,GI50,[13],0.801 µM
same,TGI,[13],4.52 µM
same,GI50,[14],0.0879 µM
same,TGI,[14],1.25 µM
same,GI50,[15],0.0896 µM
same,TGI,[15],2.85 µM
same,GI50,[16],0.295 µM
same,TGI,[16],1.56 µM
same,GI50,[17],0.039 µM
same,TGI,[17],0.0959 µM
same,GI50,[18],0.523 µM
same,TGI,[18],4.24 µM
same,GI50,[19],1.91 µM
same,TGI,[19],5.23 µM
same,GI50,[20],0.0832 µM
same,TGI,[20],3.31 µM
same,GI50,[21],0.0964 µM
same,TGI,[21],3.02 µM
same,GI50,[22],0.0643 µM
same,TGI,[22],0.246 µM
same,GI50,[23],0.0708 µM
same,TGI,[23],1.08 µM
same,GI50,[24],0.0801 µM
same,TGI,[24],2.86 µM
same,GI50,[25],0.0472 µM
same,TGI,[25],0.236 µM
same,GI50,[26],0.0853 µM
same,TGI,[26],1.42 µM
same,GI50,[27],0.0916 µM
same,TGI,[27],2.98 µM
same,GI50,[28],0.0872 µM
same,TGI,[28],3.1 µM
same,GI50,[29],0.0671 µM
same,TGI,[29],0.991 µM
same,GI50,[30],0.114 µM
same,TGI,[30],3.81 µM
same,GI50,[31],0.179 µM
same,TGI,[31],4.51 µM
same,GI50,[32],0.0997 µM
same,TGI,[32],3.18 µM
same,GI50,[33],0.217 µM
same,TGI,[33],4.41 µM
same,GI50,[34],0.126 µM
same,TGI,[34],3.2 µM
same,GI50,[35],0.948 µM
same,TGI,[35],4.33 µM
same,GI50,[36],0.637 µM
same,TGI,[36],4.58 µM
same,GI50,[37],0.0879 µM
same,TGI,[37],3.32 µM
same,GI50,[38],0.143 µM
same,TGI,[38],2.25 µM
same,GI50,[39],0.11 µM
same,TGI,[39],3.4 µM
same,GI50,[40],0.307 µM
same,TGI,[40],3.43 µM
same,GI50,[41],0.0859 µM
same,TGI,[41],2.98 µM
same,GI50,[42],0.118 µM
same,TGI,[42],3.37 µM
same,GI50,[43],0.631 µM
same,TGI,[43],5.02 µM
same,GI50,[44],0.163 µM
same,TGI,[44],4.56 µM
same,GI50,[45],0.144 µM
same,TGI,[45],1.08 µM
same,GI50,[46],0.0673 µM
same,TGI,[46],3.3 µM
same,GI50,[47],0.144 µM
same,TGI,[47],1.98 µM
same,GI50,[48],0.653 µM
same,TGI,[48],5.04 µM
same,GI50,[49],0.14 µM
same,TGI,[49],3.86 µM
same,GI50,[50],0.699 µM
same,TGI,[50],4.69 µM
same,GI50,[51],0.319 µM
same,TGI,[51],4.28 µM
same,GI50,[52],0.0994 µM
same,TGI,[52],3.11 µM
same,GI50,[53],0.106 µM
same,TGI,[53],3.27 µM
same,GI50,[54],0.0648 µM
same,TGI,[54],3.5 µM
same,GI50,[55],2.79 µM
same,TGI,[55],6.97 µM
same,GI50,[56],0.133 µM
same,TGI,[56],5.89 µM
